From ChEMBL document CHEMBL2429812, “Exploring multitarget interactions to reduce opiate withdrawal syndrome and psychiatric comorbidity” (ACS Med Chem Lett, 2013)
The source made the active and inactive calls. No cut-off for these calls is given here.

Key:
[1] = molecular target: T1, Alpha-2A adrenergic receptor (Homo sapiens) (UniProt P08913); experiment: Antagonist activity at human alpha2A AR
T1 sequence (whole entry): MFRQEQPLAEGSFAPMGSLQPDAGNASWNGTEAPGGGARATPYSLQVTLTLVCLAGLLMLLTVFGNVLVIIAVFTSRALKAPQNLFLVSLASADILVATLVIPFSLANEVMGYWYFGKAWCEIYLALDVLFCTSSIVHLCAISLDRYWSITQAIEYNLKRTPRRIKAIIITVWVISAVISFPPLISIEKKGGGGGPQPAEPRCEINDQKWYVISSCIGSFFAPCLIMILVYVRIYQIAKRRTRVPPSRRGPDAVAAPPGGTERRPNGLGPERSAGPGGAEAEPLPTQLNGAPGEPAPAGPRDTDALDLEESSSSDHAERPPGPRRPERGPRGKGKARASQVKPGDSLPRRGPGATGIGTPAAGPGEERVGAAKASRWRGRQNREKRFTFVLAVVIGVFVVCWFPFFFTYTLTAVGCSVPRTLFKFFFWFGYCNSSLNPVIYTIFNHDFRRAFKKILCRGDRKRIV

[2] = molecular target: T2, Alpha-2C adrenergic receptor (Homo sapiens) (UniProt P18825); experiment: Agonist activity at human alpha2C AR assessed as intrinsic activity
T2 sequence (whole entry): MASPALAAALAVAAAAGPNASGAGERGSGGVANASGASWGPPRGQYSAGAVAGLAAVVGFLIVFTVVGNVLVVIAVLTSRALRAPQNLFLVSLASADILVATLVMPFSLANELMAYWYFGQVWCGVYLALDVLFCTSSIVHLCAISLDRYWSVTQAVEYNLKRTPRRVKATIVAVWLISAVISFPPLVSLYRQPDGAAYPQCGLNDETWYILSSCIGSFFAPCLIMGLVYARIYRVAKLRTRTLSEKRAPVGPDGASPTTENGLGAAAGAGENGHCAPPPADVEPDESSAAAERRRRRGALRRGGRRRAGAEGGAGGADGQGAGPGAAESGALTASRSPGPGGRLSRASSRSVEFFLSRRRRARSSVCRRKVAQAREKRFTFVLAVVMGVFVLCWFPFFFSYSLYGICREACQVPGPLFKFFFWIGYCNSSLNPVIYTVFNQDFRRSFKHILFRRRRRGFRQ

[3] = molecular target: T3, Alpha-2B adrenergic receptor (Homo sapiens) (UniProt P18089)
T3 sequence (whole entry): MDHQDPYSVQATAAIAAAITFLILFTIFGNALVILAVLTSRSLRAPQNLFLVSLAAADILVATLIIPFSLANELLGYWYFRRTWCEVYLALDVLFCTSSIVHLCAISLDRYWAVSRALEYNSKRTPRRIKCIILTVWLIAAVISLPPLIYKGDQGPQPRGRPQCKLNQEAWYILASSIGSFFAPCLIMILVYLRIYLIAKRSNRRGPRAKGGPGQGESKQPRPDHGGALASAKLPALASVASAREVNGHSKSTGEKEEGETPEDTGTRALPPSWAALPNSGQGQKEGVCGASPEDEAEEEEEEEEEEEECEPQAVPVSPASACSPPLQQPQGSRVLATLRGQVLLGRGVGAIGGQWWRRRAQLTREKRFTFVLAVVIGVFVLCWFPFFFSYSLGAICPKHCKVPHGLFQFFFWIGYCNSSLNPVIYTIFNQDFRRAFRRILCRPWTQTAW

Mus musculus [4] = experiment: Antidepressant-like activity in mouse assessed as reduction in immobility time at 0.025 mg/kg, ip by forced swimming test; format: functional, organism-based; set-up: dose 0.025 mg/kg
[5] = molecular target: T4, 5-hydroxytryptamine receptor 1A (Homo sapiens) (UniProt P08908); experiment: Agonist activity at human 5HT1A receptor
T4 sequence (whole entry): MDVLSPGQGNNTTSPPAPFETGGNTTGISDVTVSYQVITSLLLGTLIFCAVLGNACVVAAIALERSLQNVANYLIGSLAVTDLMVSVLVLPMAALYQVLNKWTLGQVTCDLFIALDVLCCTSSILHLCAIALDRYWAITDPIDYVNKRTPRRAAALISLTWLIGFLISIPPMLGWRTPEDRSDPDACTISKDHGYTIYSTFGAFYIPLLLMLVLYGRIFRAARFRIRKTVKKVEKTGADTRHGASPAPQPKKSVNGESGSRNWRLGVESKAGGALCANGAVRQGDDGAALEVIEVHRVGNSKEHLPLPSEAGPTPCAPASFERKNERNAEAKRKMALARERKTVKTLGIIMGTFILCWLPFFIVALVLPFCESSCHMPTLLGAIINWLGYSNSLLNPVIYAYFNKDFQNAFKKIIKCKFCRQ

[6] = molecular target: T5, 5-hydroxytryptamine receptor 1A (Homo sapiens, UniProt P08908); experiment: Binding affinity at human 5HT1A receptor
T5 sequence (P08908 whole entry): T4 sequence (whole entry)

Mus musculus [7] = experiment: Antidepressant-like activity in mouse assessed as reduction in immobility time at 0.05 mg/kg, ip by forced swimming test; format: functional, organism-based; set-up: dose 0.05 mg/kg
[8] = Binding affinity to I2 imidazoline binding site in rat brain membrane; format: cell membranes
[9] = molecular target: T6, Alpha-2B adrenergic receptor (Homo sapiens, UniProt P18089); experiment: Binding affinity at human alpha2B AR
T6 sequence (P18089 whole entry): T3 sequence (whole entry)

[10] = molecular target: T6, Alpha-2B adrenergic receptor; experiment: Agonist activity at human alpha2B AR
[11] = molecular target: T7, Alpha-2C adrenergic receptor (Homo sapiens, UniProt P18825); experiment: Binding affinity at human alpha2C AR
T7 sequence (P18825 whole entry): T2 sequence (whole entry)

[12] = molecular target: T8, Alpha-2A adrenergic receptor (Homo sapiens, UniProt P08913); experiment: Binding affinity at human alpha2A AR
T8 sequence (P08913 whole entry): T1 sequence (whole entry)

Mus musculus [13] = experiment: Antidepressant-like activity in mouse assessed as reduction in immobility time at 1 to 20 mg/kg, ip by forced swimming test; format: functional, organism-based
Mus musculus [14] = experiment: Antidepressant-like activity in mouse assessed as reduction in immobility time at 5 mg/kg, ip by forced swimming test in presence of WAY 100635; format: functional, organism-based; set-up: dose 5 mg/kg
Mus musculus [15] = experiment: Antidepressant-like activity in mouse assessed as reduction in immobility time at 5 mg/kg, ip by forced swimming test in presence of idazoxan; format: functional, organism-based; set-up: dose 5 mg/kg
Mus musculus [16] = experiment: Reduction in morphine dependence expression in mouse assessed as decrease in expression of naloxone-precipitated withdrawal syndrome measuring jumping at 5 mg/kg, ip; format: functional; set-up: scale not given: the % may be the effect or the level left; conditions: route intraperitoneal
Mus musculus [17] = experiment: Reduction in morphine dependence expression in mouse assessed as decrease in expression of naloxone-precipitated withdrawal syndrome measuring somatic signs at 5 mg/kg, ip; format: functional; set-up: scale not given: the % may be the effect or the level left; conditions: route intraperitoneal
[18] = molecular target: T4, 5-hydroxytryptamine receptor 1A (Homo sapiens); experiment: Agonist activity at human 5HT1A receptor assessed as intrinsic activity
[19] = molecular target: T7, Alpha-2C adrenergic receptor; experiment: Agonist activity at human alpha2C AR
Mus musculus [20] = experiment: Antidepressant-like activity in mouse assessed as reduction in immobility time at 5 mg/kg, ip by forced swimming test; format: functional; set-up: scale not given: the % may be the effect or the level left; conditions: route intraperitoneal
[21] = molecular target: T3, Alpha-2B adrenergic receptor (Homo sapiens); experiment: Agonist activity at human alpha2B AR assessed as intrinsic activity
Mus musculus [22] = experiment: Antidepressant-like activity in mouse assessed as reduction in immobility time at 10 mg/kg, ip by forced swimming test; format: functional, organism-based; set-up: dose 10 mg/kg
[23] = molecular target: T4, 5-hydroxytryptamine receptor 1A (Homo sapiens); experiment: Agonist activity at human 5HT1A receptor relative to control
Mus musculus [24] = experiment: Reduction in morphine dependence expression in ip dosed mouse assessed as dosed required for decrease in expression of naloxone-precipitated withdrawal syndrome; format: functional
Mus musculus [25] = experiment: Antidepressant-like activity in ip dosed mouse assessed as dosed required for reduction in immobility time by forced swimming test; format: functional
Mus musculus [26] = experiment: Antidepressant-like activity in mouse assessed as reduction in immobility time at 20 mg/kg, ip by forced swimming test; format: functional, organism-based; set-up: dose 20 mg/kg

| Structure (SMILES) | pKb [1] | Intrinsic activity [2] | pD2 [5] | Ki [6] | pKi [8] | Ki [9] | Ki [11] | Ki [12] | Intrinsic activity [21] | other results |
| --- | --- | --- | --- | --- | --- | --- | --- | --- | --- | --- |
| C[C@@H](Oc1ccccc1C1CC1)C1=NCCN1 | 6.9 | 0.5 | < 5 |  |  |  |  |  |  | pEC50 [3]: inactive; Activity (Mus musculus [4]): inactive |
| C=CCc1ccccc1OCC1=NCCN1 | 6.5 |  |  | 70.8 nM | 8.88 | 708 nM | 70.8 nM | 126 nM |  | Activity (Mus musculus [7]): inactive; EC50 [10]: 977 nM; Activity (Mus musculus [13]): Active; Activity (Mus musculus [14]): Active; Activity (Mus musculus [15]): inactive; Activity (Mus musculus [16]): >50%; Activity (Mus musculus [17]): >50%; Intrinsic activity [18]: 0.73; EC50 [19]: 61.7 nM; Activity (Mus musculus [20]): 50% |
| c1ccc(C2CC2)c(OCC2=NCCN2)c1 [CIRAZOLINE] | 6.4 |  |  | 34.7 nM | 8.35 |  |  |  |  | Intrinsic activity [18]: 0.8 |
| C[C@H](Oc1ccccc1CC1CC1)C1=NCCN1 |  | 0.85 |  |  |  |  |  |  | 0.7 |  |
| CCCc1ccccc1OCC1=NCCN1 | 6.28 |  |  | 79.4 nM | 8.25 | 550 nM | 490 nM | 49 nM |  | Activity (Mus musculus [22]): Active; EC50 [10]: 2510 nM; Intrinsic activity [18]: 0.9; EC50 [19]: 155 nM |
| C=CCc1ccccc1OC(C)C1=NCCN1 (centres undefined) [ALLYPHENYLINE] | 7.4 | 0.9 | 6.86 |  | < 6 |  |  |  |  | Activity (Mus musculus [7]): Active; pEC50 [3]: inactive |
| CC(Oc1ccccc1CC1CC1)C1=NCCN1 (centres undefined) [CYCLOMETHYLINE] |  | 0.8 |  |  | < 6 |  |  |  | 0.7 | Activity (Mus musculus [7]): Active |
| C=CCc1ccccc1O[C@H](C)C1=NCCN1 | 7.4 | 0.5 | < 5 |  |  |  |  |  |  | pEC50 [3]: inactive |
| CC(Oc1ccccc1OC1CC1)C1=NCCN1 (centres undefined) | 6.9 | 0.7 |  | 14.8 nM | < 6 |  |  |  | 0.6 |  |
| CC(Oc1ccccc1C1CC1)C1=NCCN1 (centres undefined) | 7 | 0.9 | 7.24 | 7.24 nM | < 6 |  |  |  | 0.7 | Activity (Mus musculus [7]): Active; Emax [23]: 92% |
| CC(Oc1ccccc1Br)C1=NCCN1 (centres undefined) | 7.04 | 0.87 |  | 148 nM | < 6 |  |  |  | 0.4 |  |
| c1ccc2oc(-c3ncc[nH]3)cc2c1 |  |  |  |  |  |  |  |  |  | Activity (Mus musculus [24]): 20 mg/kg |
| C[C@H](Oc1ccccc1C1CC1)C1=NCCN1 | 7.7 | 0.9 | 7.86 | 6.03 nM |  |  |  |  | 0.65 | Emax [23]: 102%; Activity (Mus musculus [4]): Active |
| CCCc1ccccc1OC(C)C1=NCCN1 (centres undefined) | 7.05 | 0.75 | 7.08 | 13.8 nM | < 6 | 537 nM | 148 nM | 50.1 nM | 0.6 | Emax [23]: 118%; EC50 [10]: 5010 nM; EC50 [19]: 25.1 nM |
| c1ccc2oc(C3=NCCN3)cc2c1 |  |  |  |  | 8.89 | 26900 nM | 26900 nM | 26900 nM |  | Activity (Mus musculus [24]): 19 mg/kg; Activity (Mus musculus [25]): 10 mg/kg |
| c1ccc(OC2CC2)c(OCC2=NCCN2)c1 | 6.22 |  |  | 79.4 nM | < 6 | 794 nM | 794 nM | 316 nM |  | EC50 [10]: 3160 nM; Intrinsic activity [18]: 1; EC50 [19]: 1000 nM |
| CNCCC(Oc1ccc(C(F)(F)F)cc1)c1ccccc1 (centres undefined) |  |  |  |  |  |  |  |  |  | Activity (Mus musculus [26]): Active |
| C[C@@H](Oc1ccccc1CC1CC1)C1=NCCN1 |  | 0.75 |  |  |  |  |  |  | 0.65 |  |
| c1ccc(OCC2=NCCN2)c(CC2CC2)c1 | 6.35 |  |  | 83.2 nM | 6.9 | 501 nM | 631 nM | 77.6 nM |  | EC50 [10]: 1700 nM; Intrinsic activity [18]: 0.8; EC50 [19]: 234 nM |
| C=CCc1ccccc1O[C@@H](C)C1=NCCN1 | 7.8 | 0.9 | 7.19 |  |  |  |  |  | 0.65 |  |
| Brc1ccccc1OCC1=NCCN1 | 6.72 |  |  | 562 nM | 7.9 | 617 nM | 398 nM | 95.5 nM |  | EC50 [10]: 1260 nM; Intrinsic activity [18]: 0.88; EC50 [19]: 97.7 nM |
